Experimental data as given in patent US6071896A, “Suppression of thromboxane levels by percutaneous administration of aspirin” (Gundersen Clinic, Ltd., priority 1998, dated 2000).
Entries after “also recorded” stand apart in the source; their conditions may differ.

Experiments:
[1] = tested on: pregnancy-induced hypertension and preeclamptic toxemia; settings: daily doses, third trimester, women at high risk; cited from earlier work
PGI2 biosynthesis = assay: Urinary 2,3-dinor-6-keto-PGF1a (PGI-M) excretion, dermal aspirin, Example 2; format: in vivo, human; settings: for Urinary PGI-M excretion, peak decrease (day 4): p=0.074 by ANOVA (not significant)
Description: (§1) Only healthy male and female volunteers were studied. The subjects were asked to avoid aspirin and any other cyclooxygenase inhibitors for the 10 days before and throughout the period of investigation. Aspirin (acetyl salicylic acid, USP) powder was dissolved in propylene glycol and either isopropyl alcohol or ethanol (1.7:1 v/v) to a final concentration of 94 mg/ml. […] The aspirin preparation was made daily immediately prior to its application Volunteers attended the clinic where the preparation was applied and were asked not to wash the area for at least 12 hours. The aspirin solution was applied to the forearm and upper arm over a 15 min interval. Volunteers received aspirin 250 mg (n=4), aspirin 750 mg (n=6) or vehicle (n=6) for 10 days and were followed for 8 days following drug withdrawal. The volunteers were aged 31-56 years, with equal numbers of male and females in each treatment group.
(§2) Blood without anticoagulant was obtained for serum TXB2, the stable metabolite of TXA2, prior to and at intervals during and following aspirin administration. The blood was allowed to clot in glass at 37° C. for 60 min and the serum removed and stored at -20° C. until analyzed. Urine was collected over 24 hours at corresponding times for measurement of 2,3-dinor-TXB2 (TX-M) and 2,3-dinor-6-keto-PGF1a (PGI-M), major enzymatic metabolites of TXA2 and PGI2, respectively [Lawson et al., Analyt. Biochem. 150:463 (1985); FitzGerald et al., N. Engl. J. Med. 310: 1065 (1984)]. Excretion of these products is an index of the in vivo formation of their parent compounds [FitzGerald et al., supra; Reilly and Fitzgerald, Blood 69: 180 (1987)]. Serum TXB2 and urinary metabolites were determined by negative ion-chemical ionization, gas chromatography-mass spectrometry (NICI-GCMS) using authentic deuterated standards, as previously described [Braden et al., supra].

PGI2 synthesis = settings: cited from earlier work
[2] = tested on: TX-M excretion (TXA2 biosynthesis); assay: Urinary TX-M excretion before and after dermal or oral aspirin, Example 3; format: in vivo, human; parameters: TX-M post ASA: unit not given beside the values
Description: In an additional 4 subjects, we examined the increase in PGI2 formation in response to intravenous bradykinin prior to and following oral aspirin 75 mg or dermal aspirin 750 mg daily for 14 days. The protocol for bradykinin has been described previously [Clark, N.Engl.J.Med 325:1137 (1991)]. Volunteers were admitted after an overnight fast to the Clinical Research Center. Blood samples were obtained for serum TXB2 and the subject asked to void. Through a peripheral vein, 1 liter of normal saline was infused over 1 hour. After a further hour, bradykinin was infused in incremental doses of 100-800 ng/kg/min, each over 15 mm. The infusion was continued at the maximum tolerated dose for a total period of 2 hr. Blood pressure and heart rate were monitored continuously. Urine was collected in separate 2 hr aliquots prior to, during and following the bradykinin infusion.
^1 The excretion of TXM and PGIM before and following dermal aspirin
750 mg/day or oral aspirin 75 mg/day for 10 days. Urine samples were
collected over 2 hr before (rest) and following the administration of […]

gastric mucosa = settings: cited from earlier work
TXA2 biosynthesis = assay: Urinary 2,3-dinor-TXB2 (TX-M) excretion, dermal aspirin, Example 2; format: in vivo, human
Description: as §1, §2

[3] = Hemoccults, gastrointestinal symptoms and side effects, Example 1; format: in vivo, human; settings: 5 volunteers, topical aspirin
Source text: Five healthy adult volunteers (3 male, 2 female) were studied. Each refrained from ingesting oral aspirin for two weeks prior to study. Prior to treatment in accordance with the present invention, baseline thromboxane levels and hemoccults were obtained.
After base levels of thromboxane had been measured, the aspirin solution was first applied on the morning of Day 1 to the skin of the human subjects within an hour of mixing by rubbing the aspirin solution on the arms and/or chest of the subject. The application was repeated with freshly prepared solution for each of four additional mornings (Days 2-5) in the same manner. Between applications the subjects followed their normal schedule of bathing and showering. Eight hours after the fifth application (on Day 5) blood was drawn for salicylate levels and thromboxane levels to be determined. With one subject, blood was drawn for TXA2 levels every day just before application of a new aspirin solution (i.e., approximately 24 hours after application of the previous aspirin solution). Hemoccults were also tested.

physchem = format: physicochemical
platelet cyclooxygenase = assay: Serum TXB2 during and after dermal aspirin (index of platelet cyclooxygenase); format: in vivo, human
Source text: In studying the effects of the methods of the present invention platelet cyclooxygenase activity was used as a measure of aspirin bioavailability, in addition to plasma drug levels. […] Inhibition of urinary TX-M followed a similar pattern. TX-M is a major enzymatic metabolite of TXB2 and its excretion is an index of TXA2 biosynthesis in vivo. In contrast, the vehicle alone had no effect on serum TXB2 or urinary TX-M. Following withdrawal of therapy, serum TXB2 and TX-M recovered gradually over a period of days. This is consistent with inhibition of platelet cyclooxygenase in vivo. As the enzyme is inhibited irreversibly, recovery of platelet TXA2 biosynthesis parallels the formation of new platelets, a process that has a half-life of 5 days.
as §1, §2

[4] = highest dose of dermal aspirin (750 mg/day)
[5] = patients with rheumatic diseases

CC(=O)Oc1ccccc1C(=O)O [aspirin, acetyl salicylic acid]
Incidence of pregnancy-induced hypertension and preeclamptic toxemia [1]: significantly reduce the incidence of pregnancy-induced hypertension and preeclamptic toxemia | PGI2 biosynthesis based on urinary PGI-M (PGI2 biosynthesis; dermal aspirin): little inhibition of basal or stimulated PGI2 formation; also recorded: only a small fall in PGI2 biosynthesis | Urinary PGI-M excretion, peak decrease (day 4) (PGI2 biosynthesis; dermal aspirin 250 mg/day, baseline 402±139 pg/mg creatinine): 84±4 % of baseline | Urinary PGI-M excretion, peak decrease (day 4) (PGI2 biosynthesis; dermal aspirin 750 mg/day, baseline 248±73 pg/mg creatinine): 76±7 % of baseline | Decrease in basal PGI-M excretion by day 4 (PGI2 biosynthesis; [4]): 24% | PGI-M excretion by day 10 (PGI2 biosynthesis; [4]): 83 % of baseline | Inhibition of PGI2 synthesis, arterial and venous tissue (PGI2 synthesis; 20 mg/day for 1 week, atherosclerotic patients): 50% | Urinary PGI2 metabolites / prostacyclin biosynthesis (PGI2 synthesis; approximately 40 mg/day): no significant effect on prostacyclin biosynthesis | Reduction of PGI2 synthesis, arterial and venous tissue (PGI2 synthesis; equally low doses (about 40 mg/day)): 50% | Bradykinin-stimulated PGI2 formation (PGI2 synthesis; oral aspirin 75 mg/day): abolished | TX-M post ASA ([2]; Dermal aspirin 750 mg/day, PT 1, pre ASA 220): 46 | TX-M post ASA ([2]; Dermal aspirin 750 mg/day, PT 2, pre ASA 121): 29 | TX-M post ASA ([2]; Oral aspirin 75 mg/day, PT 1, pre ASA 136): 26 | TX-M post ASA ([2]; Oral aspirin 75 mg/day, PT 2, pre ASA 111): 43 | Urinary TX-M ([2]; dermal aspirin 750 mg/day): marked fall in urinary TX-M; also recorded: suppressed TXM | Urinary TX-M ([2]; oral aspirin 75 mg/day): marked fall in urinary TX-M | Gastric mucosa damage, occult bleeding (gastric mucosa; applied topically to gastrointestinal tissue): damages gastric mucosa and induces occult gastrointestinal bleeding | Effects on gastric mucosa (gastric mucosa; intravenous/parenteral vs oral): less pronounced with parenteral than with oral administration | Bleeding (gastric mucosa; oral diluted solutions vs similar doses in tablet form): considerably less bleeding than similar doses in tablet form | Erythema of the gastric mucosa (gastric mucosa; [5]): approximately 80 % of patients | Gastric erosions (gastric mucosa; [5]): approximately 40 % of patients | Gastric ulcer (gastric mucosa; [5]): 15 % of patients | Urinary TX-M excretion, 8 days following drug withdrawal (TXA2 biosynthesis; dermal aspirin 750 mg/day): 65±9 % of pretreatment value | Urinary TX-M excretion, day 10 (TXA2 biosynthesis; dermal aspirin 750 mg/day, n=5, p=0.002, baseline 498±76 pg/mg creatinine): 32±7 % of baseline | Urinary TX-M excretion response (TXA2 biosynthesis; dermal aspirin 250 and 750 mg/day): dose dependent reduction in the urinary excretion of TX-M | Gastrointestinal symptoms or other side effects [3]: No gastrointestinal symptoms or other side effects were noted or reported | Hemoccults [3]: negative | degraded at 24 h (physchem; 24 hr, room temperature, propylene glycol and isopropyl alcohol or ethanol (1.7:1 v/v), 94 mg/ml, read-out: Salicylate detected in vehicle (aspirin stability)): < 1% | Stability of aspirin in vehicle (physchem; propylene glycol and alcohol vehicle, 24 hr room temperature): stable | Inhibition of platelet cyclooxygenase (platelet cyclooxygenase; aspirin absorbed through the skin): marked and selective inhibition of platelet cyclooxygenase | Serum TXB2 recovery, day 8 after withdrawal (platelet cyclooxygenase; dermal aspirin 250 mg/day): 93±7 % of baseline | Serum TXB2 (fall in), day 10 (platelet cyclooxygenase; dermal aspirin 250 mg/day, n=4, p<0.01): 55±11% | Serum TXB2 recovery, day 8 after withdrawal (platelet cyclooxygenase; dermal aspirin 750 mg/day): 65±9 % of baseline | Serum TXB2 response (platelet cyclooxygenase; dermal aspirin 750 mg/day, n=6): progressive reduction in serum TXB2 in all but one of the volunteers | Serum TXB2, day 10 of application (platelet cyclooxygenase; dermal aspirin 750 mg/day, n=5 (one non-responder excluded), p=0.003): 5±3 % of baseline | Decrease in serum TXB2 in the subjects of Example 4 (platelet cyclooxygenase; dermal aspirin, subjects selected for pharmacokinetics): > 90% | Maximum inhibition of platelet cyclooxygenase, as measured by serum TXB2 (platelet cyclooxygenase; dermal, highest dose, 10 days): exceeded 95%
